Here are results for 6 compounds from PubChem BioAssay (NCI).

Among the test systems are COLO 205 colon; UO-31 renal; BT-549 breast; PC-3 prostate; HOP-92 NSCLC; SW-620 colon; A498 renal; NCI-H23 lung; TK-10 renal; KM12 colon.
Holding throughout (test): growth of human tumour cells (NCI), 48 h

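48-hour exposure; five concentrations; linearly interpolated endpoints. At the GI50, growth is halved. TGI is the concentration that stops growth completely.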

Consider `CC(=O)Nc1cc2cc(NS(=O)(=O)c3ccc(Cl)c(Cl)c3)ccc2oc1=O`, for which the TGI was 93.7 µM in the test with COLO 205 colon; greater than 100 µM with UO-31 renal; greater than 100 µM in the test with BT-549 breast; 51.1 µM with PC-3 prostate; 60.5 µM in the test with HOP-92 NSCLC; greater than 100 µM in the test with SW-620 colon. Further, the TGI with A498 renal is 40.7 µM; in the test with NCI-H23 lung, greater than 100 µM; with TK-10 renal it was greater than 100 µM; in the test on KM12 colon, 92.3 µM.
With `CCOc1ccc(C(C[N+](=O)[O-])Sc2ccccc2N)cc1` (stereo not given), the GI50 with COLO 205 colon is 4.74 µM; in the test with UO-31 renal it was 2.05 µM; with BT-549 breast, 2.6 µM; with PC-3 prostate, 4.02 µM; in the test on HOP-92 NSCLC it was 16.5 µM; with SW-620 colon it was 1.73 µM. The GI50 in the test with A498 renal was 12.5 µM; in the test with NCI-H23 lung, 8.71 µM; in the test on TK-10 renal, 15.4 µM; in the test on KM12 colon it was 3.27 µM. The TGI in the test on COLO 205 colon was found to be 16.8 µM; in the test with UO-31 renal, 18.2 µM; in the test on BT-549 breast, 9.9 µM; with PC-3 prostate it was 17.3 µM; with HOP-92 NSCLC it was 30.9 µM; in the test with SW-620 colon, 4.45 µM. Also, the TGI in the test with A498 renal amounted to 25 µM; with NCI-H23 lung it was 21.6 µM; in the test with TK-10 renal, 29.2 µM; with KM12 colon, 10.2 µM.
In the case of `Cc1nc2sc3c(N)ncnc3c2c(C)c1C`, the GI50 in the test on COLO 205 colon, in the test with UO-31 renal, in the test with BT-549 breast, with PC-3 prostate, in the test with HOP-92 NSCLC and in the test on SW-620 colon was greater than 25 µM in each case. Moreover, the GI50 in the test on A498 renal, in the test on NCI-H23 lung, with TK-10 renal and with KM12 colon was greater than 25 µM in each case. Moreover, the TGI in the test with COLO 205 colon, in the test with UO-31 renal, in the test with BT-549 breast, with PC-3 prostate, with HOP-92 NSCLC and in the test on SW-620 colon was greater than 25 µM in each case. The TGI in the test with A498 renal, in the test on NCI-H23 lung, in the test with TK-10 renal and in the test with KM12 colon was greater than 25 µM each time.
With `Cn1cc(C2=C(c3cn(CCCN)c4ccccc34)C(=O)NC2=O)c2ccccc21`, the GI50 is 3.27 µM with COLO 205 colon; 5.41 µM with UO-31 renal; 5.07 µM in the test with BT-549 breast; 7.63 µM in the test with PC-3 prostate; 8.26 µM with HOP-92 NSCLC; 4.38 µM in the test on SW-620 colon. Moreover, the GI50 is 3.92 µM in the test with A498 renal, 5.17 µM in the test on NCI-H23 lung, 4.86 µM with TK-10 renal and 5.44 µM in the test on KM12 colon. For the same compound, the TGI in the test with COLO 205 colon was 7.06 µM; with UO-31 renal, greater than 18.8 µM; with BT-549 breast, 11.5 µM; with PC-3 prostate, 24.6 µM; in the test with HOP-92 NSCLC, 17.6 µM; in the test with SW-620 colon, 9.37 µM. Also, the TGI in the test with A498 renal came out at 9.18 µM; in the test on NCI-H23 lung it was 14.2 µM; in the test on TK-10 renal, 12.8 µM; with KM12 colon it was 14.2 µM.
Take `OC1CCCC2CCC[N-]C12.OC1CCCC2CCC[N-]C12.[O]=[V][OH]` (stereo not given): the GI50 with COLO 205 colon was 21.1 µM; in the test on UO-31 renal, 2.13 µM; in the test with BT-549 breast it was 6.3 µM; with PC-3 prostate it was 2.59 µM; with HOP-92 NSCLC it was 22.9 µM; with SW-620 colon it was 3.5 µM. Also, the GI50 with A498 renal was 11.6 µM; with NCI-H23 lung, 7.22 µM; in the test with TK-10 renal, 44.9 µM; in the test on KM12 colon it was 7.24 µM. The TGI in the test with COLO 205 colon was 81.8 µM; in the test on UO-31 renal it was 9.29 µM; in the test with BT-549 breast, 52.8 µM; in the test on PC-3 prostate it was 8.63 µM; in the test with HOP-92 NSCLC, greater than 100 µM; in the test on SW-620 colon, 37.5 µM. Moreover, the TGI with A498 renal is 97.5 µM; in the test with NCI-H23 lung, 52.6 µM; with TK-10 renal, greater than 100 µM; in the test on KM12 colon, greater than 100 µM.
For the compound `CCC(=O)N1C/C(=C/c2ccc(Br)cc2)C(=O)/C(=C/c2ccc(Br)cc2)C1`, the GI50 with COLO 205 colon was 0.611 µM; in the test on UO-31 renal it was 0.607 µM; in the test on BT-549 breast it was 0.653 µM; in the test on PC-3 prostate, 0.632 µM; in the test on HOP-92 NSCLC, 1.69 µM; in the test with SW-620 colon, 0.22 µM. Also, the GI50 is 1.43 µM in the test on A498 renal, 1.31 µM in the test with NCI-H23 lung, 0.357 µM in the test with TK-10 renal and 0.186 µM in the test on KM12 colon. For the same compound, the TGI amounted to 1.74 µM with COLO 205 colon; 1.5 µM in the test with UO-31 renal; 1.39 µM in the test on BT-549 breast; 2.29 µM with PC-3 prostate; 4.13 µM in the test on HOP-92 NSCLC; 0.82 µM with SW-620 colon. For the same compound, the TGI was 3.06 µM in the test with A498 renal, 3.46 µM in the test on NCI-H23 lung, 1.28 µM in the test on TK-10 renal and 0.553 µM in the test with KM12 colon.
